Data from patent publication US10870647B2, “Imidazopyridine derivative, method for preparing same, and pharmaceutical composition containing same as active ingredient for preventing or treating cancer” (DAEGU-GYEONGBUK MEDICAL INNOVATION FOUNDATION, priority 2016, dated 2020).

Experiments:
Assay in all cases: Kinase selectivity, scanMAX Kinase assay panel (DiscoverX), % control at 1 uM
Format in all cases: binding
[1] = molecular target: T1, scanMAX Kinase assay panel (Homo sapiens, UniProt Q9Y2U5); details: MAP3K2; 1 uM; read-out: Percent Control (%)
T1 construct: purchased DiscoverX
T1 sequence (Q9Y2U5 1-619): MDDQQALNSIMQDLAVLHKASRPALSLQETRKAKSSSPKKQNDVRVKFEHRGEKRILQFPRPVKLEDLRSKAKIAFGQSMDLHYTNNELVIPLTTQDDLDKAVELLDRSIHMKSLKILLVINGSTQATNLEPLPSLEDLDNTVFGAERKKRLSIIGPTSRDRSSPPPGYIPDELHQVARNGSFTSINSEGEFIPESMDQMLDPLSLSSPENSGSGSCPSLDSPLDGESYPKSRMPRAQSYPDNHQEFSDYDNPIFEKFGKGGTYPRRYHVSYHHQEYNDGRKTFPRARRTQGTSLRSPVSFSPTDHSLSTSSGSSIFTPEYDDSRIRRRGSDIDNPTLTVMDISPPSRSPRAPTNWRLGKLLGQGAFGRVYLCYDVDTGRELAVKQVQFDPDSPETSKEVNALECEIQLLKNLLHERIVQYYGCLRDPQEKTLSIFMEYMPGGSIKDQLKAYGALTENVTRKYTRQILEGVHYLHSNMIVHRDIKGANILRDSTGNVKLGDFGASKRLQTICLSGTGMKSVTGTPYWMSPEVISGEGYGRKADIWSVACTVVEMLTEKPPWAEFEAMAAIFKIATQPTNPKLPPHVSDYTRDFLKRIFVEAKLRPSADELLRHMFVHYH
Outline: (§1)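 Each kinase was first exposed to the test compound at 1 uM in DMSO. Signal was then normalised to positive and negative controls to give % control. Finally, any enzyme showing <35% control was judged inhibited.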

[2] = molecular target: T2, scanMAX Kinase assay panel (Homo sapiens, UniProt P29323); details: EPHB2; 1 uM; read-out: Percent Control (%)
T2 construct: purchased DiscoverX
T2 sequence (P29323 19-1055): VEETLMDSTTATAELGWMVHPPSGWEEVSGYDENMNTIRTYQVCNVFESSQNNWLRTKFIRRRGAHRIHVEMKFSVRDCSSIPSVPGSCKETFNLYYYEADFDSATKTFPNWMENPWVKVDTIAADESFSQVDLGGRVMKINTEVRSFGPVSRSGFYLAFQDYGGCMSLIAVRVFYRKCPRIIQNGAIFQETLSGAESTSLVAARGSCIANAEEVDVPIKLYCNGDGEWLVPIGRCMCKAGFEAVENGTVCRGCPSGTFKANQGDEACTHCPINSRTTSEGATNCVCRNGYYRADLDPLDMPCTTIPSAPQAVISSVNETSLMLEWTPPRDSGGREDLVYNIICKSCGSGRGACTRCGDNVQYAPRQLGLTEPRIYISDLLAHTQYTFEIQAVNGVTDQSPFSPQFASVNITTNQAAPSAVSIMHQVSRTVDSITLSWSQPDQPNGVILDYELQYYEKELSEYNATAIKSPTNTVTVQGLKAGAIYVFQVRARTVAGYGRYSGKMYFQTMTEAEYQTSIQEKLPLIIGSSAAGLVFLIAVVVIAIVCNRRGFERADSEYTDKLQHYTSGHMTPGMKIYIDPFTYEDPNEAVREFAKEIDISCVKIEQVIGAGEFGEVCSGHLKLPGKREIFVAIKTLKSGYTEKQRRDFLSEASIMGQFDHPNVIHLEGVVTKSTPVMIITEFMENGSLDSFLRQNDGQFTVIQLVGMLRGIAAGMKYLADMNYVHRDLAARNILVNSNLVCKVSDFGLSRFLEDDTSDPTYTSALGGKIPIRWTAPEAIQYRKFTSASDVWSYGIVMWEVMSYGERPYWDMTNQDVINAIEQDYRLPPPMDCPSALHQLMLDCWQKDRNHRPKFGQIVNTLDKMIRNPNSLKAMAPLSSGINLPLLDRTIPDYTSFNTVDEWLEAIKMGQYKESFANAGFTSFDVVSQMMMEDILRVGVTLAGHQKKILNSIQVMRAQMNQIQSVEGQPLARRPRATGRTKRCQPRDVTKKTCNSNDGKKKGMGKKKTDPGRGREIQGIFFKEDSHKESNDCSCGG
Outline: as §1

[3] = molecular target: T3, scanMAX Kinase assay panel (Plasmodium falciparum, UniProt P61075); details: PFPK5 (P. falciparum); 1 uM; read-out: Percent Control (%)
T3 construct: purchased DiscoverX
T3 sequence (P61075 whole entry): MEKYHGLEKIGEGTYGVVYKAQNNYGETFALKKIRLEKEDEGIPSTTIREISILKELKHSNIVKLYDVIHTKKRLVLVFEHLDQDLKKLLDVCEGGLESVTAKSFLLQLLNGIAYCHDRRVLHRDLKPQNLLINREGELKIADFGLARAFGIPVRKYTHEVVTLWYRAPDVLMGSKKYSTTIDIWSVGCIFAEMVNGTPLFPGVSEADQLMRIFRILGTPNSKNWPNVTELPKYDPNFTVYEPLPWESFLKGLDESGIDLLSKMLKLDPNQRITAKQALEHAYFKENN
Outline: as §1

[4] = molecular target: T4, scanMAX Kinase assay panel (Homo sapiens, UniProt O95747); details: OSR1; 1 uM; read-out: Percent Control (%)
T4 construct: purchased DiscoverX
T4 sequence (O95747 whole entry): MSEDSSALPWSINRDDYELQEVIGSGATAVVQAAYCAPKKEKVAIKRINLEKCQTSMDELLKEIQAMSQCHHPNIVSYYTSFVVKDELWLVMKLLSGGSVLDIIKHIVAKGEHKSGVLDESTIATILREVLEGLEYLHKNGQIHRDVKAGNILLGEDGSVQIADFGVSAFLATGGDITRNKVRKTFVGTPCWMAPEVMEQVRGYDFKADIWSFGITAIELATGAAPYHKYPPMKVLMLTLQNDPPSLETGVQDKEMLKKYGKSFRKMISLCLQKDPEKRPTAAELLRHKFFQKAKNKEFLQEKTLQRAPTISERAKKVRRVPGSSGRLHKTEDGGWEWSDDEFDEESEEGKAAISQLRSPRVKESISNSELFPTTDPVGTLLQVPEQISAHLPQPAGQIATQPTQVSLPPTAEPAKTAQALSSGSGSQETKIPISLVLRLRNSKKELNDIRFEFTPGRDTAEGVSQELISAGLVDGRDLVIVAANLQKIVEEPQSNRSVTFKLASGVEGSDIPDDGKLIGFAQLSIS
Outline: as §1

[5] = molecular target: T5, scanMAX Kinase assay panel (Homo sapiens, UniProt P00533, L858R); details: EGFR (L858R); 1 uM; read-out: Percent Control (%)
T5 construct: purchased DiscoverX
T5 sequence (P00533 25-1210 L858R): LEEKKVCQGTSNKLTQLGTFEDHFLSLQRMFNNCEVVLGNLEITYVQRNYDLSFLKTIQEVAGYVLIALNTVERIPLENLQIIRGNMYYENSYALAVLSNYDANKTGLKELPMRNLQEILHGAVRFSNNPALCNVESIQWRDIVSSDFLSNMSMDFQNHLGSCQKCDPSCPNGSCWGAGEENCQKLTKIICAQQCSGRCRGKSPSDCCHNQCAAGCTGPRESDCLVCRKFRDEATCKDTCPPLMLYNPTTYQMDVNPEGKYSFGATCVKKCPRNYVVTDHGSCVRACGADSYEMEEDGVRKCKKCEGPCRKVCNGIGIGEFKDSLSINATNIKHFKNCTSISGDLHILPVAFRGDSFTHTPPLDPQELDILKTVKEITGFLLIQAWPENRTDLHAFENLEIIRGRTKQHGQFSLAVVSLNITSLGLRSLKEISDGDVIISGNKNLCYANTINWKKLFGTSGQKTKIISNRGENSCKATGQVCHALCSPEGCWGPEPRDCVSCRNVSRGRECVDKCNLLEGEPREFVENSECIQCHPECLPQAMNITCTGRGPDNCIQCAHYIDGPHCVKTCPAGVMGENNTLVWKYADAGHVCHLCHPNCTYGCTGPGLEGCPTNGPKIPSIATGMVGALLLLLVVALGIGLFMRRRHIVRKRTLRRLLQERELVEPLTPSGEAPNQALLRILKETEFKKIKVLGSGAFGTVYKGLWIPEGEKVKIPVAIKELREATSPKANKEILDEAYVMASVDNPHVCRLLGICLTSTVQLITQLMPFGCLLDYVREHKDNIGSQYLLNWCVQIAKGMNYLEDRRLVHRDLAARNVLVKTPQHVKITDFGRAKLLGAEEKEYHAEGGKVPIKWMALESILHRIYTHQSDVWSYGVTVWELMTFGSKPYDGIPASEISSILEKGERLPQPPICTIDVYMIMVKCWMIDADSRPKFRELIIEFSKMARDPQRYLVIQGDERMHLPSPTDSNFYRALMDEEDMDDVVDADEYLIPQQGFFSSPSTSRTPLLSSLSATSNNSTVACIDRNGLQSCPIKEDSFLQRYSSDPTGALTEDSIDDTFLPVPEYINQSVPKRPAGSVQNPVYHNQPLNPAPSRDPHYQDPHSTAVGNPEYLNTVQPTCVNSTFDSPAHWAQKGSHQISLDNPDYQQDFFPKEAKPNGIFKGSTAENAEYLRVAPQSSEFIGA
Outline: as §1

[6] = molecular target: T6, scanMAX Kinase assay panel (Homo sapiens, UniProt Q13163); details: MEK5; 1 uM; read-out: Percent Control (%)
T6 construct: purchased DiscoverX
T6 sequence (Q13163 1-448): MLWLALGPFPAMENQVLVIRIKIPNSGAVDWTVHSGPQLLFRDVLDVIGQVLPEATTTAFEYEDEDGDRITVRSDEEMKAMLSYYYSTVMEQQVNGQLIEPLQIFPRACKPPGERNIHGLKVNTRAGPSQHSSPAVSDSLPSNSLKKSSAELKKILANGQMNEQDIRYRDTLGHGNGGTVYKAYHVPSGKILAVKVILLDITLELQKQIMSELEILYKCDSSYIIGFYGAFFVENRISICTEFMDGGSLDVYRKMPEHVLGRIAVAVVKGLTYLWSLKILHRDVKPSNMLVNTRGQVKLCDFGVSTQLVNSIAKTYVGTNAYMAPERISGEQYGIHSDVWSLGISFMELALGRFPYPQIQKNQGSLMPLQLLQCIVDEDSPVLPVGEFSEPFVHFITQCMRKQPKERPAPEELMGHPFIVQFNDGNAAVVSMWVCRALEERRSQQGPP
Outline: as §1

[7] = molecular target: T7, scanMAX Kinase assay panel (Homo sapiens, UniProt P54646); details: AMPK-alpha2; 1 uM; read-out: Percent Control (%)
T7 construct: purchased DiscoverX
T7 sequence (P54646 whole entry): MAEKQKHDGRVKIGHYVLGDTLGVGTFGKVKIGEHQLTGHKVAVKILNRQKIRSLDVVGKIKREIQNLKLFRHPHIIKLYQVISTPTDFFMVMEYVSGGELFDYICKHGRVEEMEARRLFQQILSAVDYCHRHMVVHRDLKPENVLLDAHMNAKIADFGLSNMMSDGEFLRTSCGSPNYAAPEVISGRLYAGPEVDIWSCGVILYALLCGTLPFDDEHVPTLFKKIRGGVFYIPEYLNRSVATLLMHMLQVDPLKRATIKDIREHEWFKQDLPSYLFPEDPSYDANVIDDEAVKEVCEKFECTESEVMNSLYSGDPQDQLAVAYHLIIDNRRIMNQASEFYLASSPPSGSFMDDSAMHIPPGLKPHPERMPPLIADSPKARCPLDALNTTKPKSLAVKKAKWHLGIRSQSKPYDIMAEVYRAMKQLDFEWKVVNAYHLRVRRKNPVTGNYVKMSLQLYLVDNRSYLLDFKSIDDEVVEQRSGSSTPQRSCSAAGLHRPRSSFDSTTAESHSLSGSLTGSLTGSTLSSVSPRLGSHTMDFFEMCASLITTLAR
Outline: as §1

[8] = molecular target: T8, scanMAX Kinase assay panel (Homo sapiens, UniProt Q6DT37); details: DMPK2; 1 uM; read-out: Percent Control (%)
T8 construct: purchased DiscoverX
T8 sequence (Q6DT37 whole entry): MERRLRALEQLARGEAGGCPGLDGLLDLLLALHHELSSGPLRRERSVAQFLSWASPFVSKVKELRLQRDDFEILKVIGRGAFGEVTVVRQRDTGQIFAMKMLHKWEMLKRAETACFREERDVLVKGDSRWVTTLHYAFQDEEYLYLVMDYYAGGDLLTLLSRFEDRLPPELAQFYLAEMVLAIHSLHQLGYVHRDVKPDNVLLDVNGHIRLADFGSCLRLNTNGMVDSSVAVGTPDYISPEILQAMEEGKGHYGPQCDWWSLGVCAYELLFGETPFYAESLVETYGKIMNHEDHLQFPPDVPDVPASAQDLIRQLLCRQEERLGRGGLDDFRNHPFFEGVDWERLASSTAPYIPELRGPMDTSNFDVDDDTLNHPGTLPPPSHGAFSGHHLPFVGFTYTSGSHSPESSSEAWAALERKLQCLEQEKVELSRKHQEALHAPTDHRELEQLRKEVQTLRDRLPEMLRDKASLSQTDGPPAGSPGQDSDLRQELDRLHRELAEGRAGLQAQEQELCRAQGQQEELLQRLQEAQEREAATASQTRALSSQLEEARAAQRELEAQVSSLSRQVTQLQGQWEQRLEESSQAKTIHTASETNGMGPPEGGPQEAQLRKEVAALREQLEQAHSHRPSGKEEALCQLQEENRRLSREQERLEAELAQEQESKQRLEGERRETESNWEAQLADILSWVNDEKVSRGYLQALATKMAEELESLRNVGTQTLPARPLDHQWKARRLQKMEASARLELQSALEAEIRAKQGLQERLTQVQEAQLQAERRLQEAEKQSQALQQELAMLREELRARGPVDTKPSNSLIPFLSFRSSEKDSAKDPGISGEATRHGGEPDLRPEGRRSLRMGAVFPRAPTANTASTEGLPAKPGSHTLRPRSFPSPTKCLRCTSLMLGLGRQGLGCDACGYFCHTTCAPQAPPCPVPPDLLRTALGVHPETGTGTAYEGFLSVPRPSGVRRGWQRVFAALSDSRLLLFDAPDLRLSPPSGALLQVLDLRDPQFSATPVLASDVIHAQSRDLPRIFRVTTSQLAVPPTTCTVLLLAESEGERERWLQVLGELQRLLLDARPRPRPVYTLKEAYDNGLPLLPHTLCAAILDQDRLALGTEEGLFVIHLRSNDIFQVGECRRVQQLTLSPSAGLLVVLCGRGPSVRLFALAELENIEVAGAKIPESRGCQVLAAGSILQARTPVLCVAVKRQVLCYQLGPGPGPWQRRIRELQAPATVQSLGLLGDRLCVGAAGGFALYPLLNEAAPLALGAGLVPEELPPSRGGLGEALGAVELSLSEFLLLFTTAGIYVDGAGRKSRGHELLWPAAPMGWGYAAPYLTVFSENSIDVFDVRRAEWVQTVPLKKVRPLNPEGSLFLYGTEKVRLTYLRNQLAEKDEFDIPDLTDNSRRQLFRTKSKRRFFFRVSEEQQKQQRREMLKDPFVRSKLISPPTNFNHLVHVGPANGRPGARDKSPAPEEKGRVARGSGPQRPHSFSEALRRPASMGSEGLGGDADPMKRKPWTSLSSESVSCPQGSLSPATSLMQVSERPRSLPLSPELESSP
Outline: as §1

Cc1ccc(NC(=O)C2(C(=O)Nc3ccc(F)cc3)CC2)cc1C#Cc1cnc2c(Nc3cnn(C(C)C)c3)cccn12 [Example 78]
remaining binding at 1 µM [1]: 100%
remaining binding at 1 µM [2]: 98%
remaining binding at 1 µM [3]: 93%
remaining binding at 1 µM [4]: 100%
remaining binding at 1 µM [5]: 84%
remaining binding at 1 µM [6]: 21%
remaining binding at 1 µM [7]: 100%
remaining binding at 1 µM [8]: 100%

Cc1cn(-c2cc(NC(=O)c3ccc(C)c(C#Cc4cnc5c(Nc6cnn(C)c6)cccn45)c3)cc(C(F)(F)F)c2)cn1 [Example 12, 4-methyl-N-(3-(4-methyl-1H-imidazol-1-yl)-5-(trifluoromethyl)phenyl)-3-((8-((1-methyl-1H-pyrazol-4-yl)amino)imidazo[1,2-a]pyridin-3-yl)ethynyl)benzamide]
remaining binding at 1 µM [1]: 84%
remaining binding at 1 µM [2]: 27%
remaining binding at 1 µM [3]: 100%
remaining binding at 1 µM [4]: 100%
remaining binding at 1 µM [5]: 47%
remaining binding at 1 µM [6]: 1%
remaining binding at 1 µM [7]: 79%
remaining binding at 1 µM [8]: 92%

Cc1ccc(C(=O)Nc2ccc(CN3CCN(C)CC3)c(C(F)(F)F)c2)cc1C#Cc1cnc2c(Nc3cnn(C)c3)cccn12 [Example 1, 4-methyl-3-((8-((1-methyl-1H-pyrazol-4-yl)amino)imidazo[1,2-a]pyridin-3-yl)ethynyl)-N-(4-((4-methylpiperazin-1-yl)methyl)-3-(trifluoromethyl)phenyl)benzamide]
remaining binding at 1 µM [1]: 1%
remaining binding at 1 µM [2]: 0%
remaining binding at 1 µM [3]: 87%
remaining binding at 1 µM [4]: 88%
remaining binding at 1 µM [5]: 0%
remaining binding at 1 µM [6]: 1%
remaining binding at 1 µM [7]: 4%
remaining binding at 1 µM [8]: 100%
